# Experimental data as given in ChEMBL document CHEMBL1201862, “PubChem BioAssay data set” (2004).
#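 Tested at 5 concentrations; 48 h exposure; 96-well plates; endpoints linearly interpolated, else capped at highest concentration. The concentration for 50% growth inhibition is given as GI50.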 The source made the active and inactive calls. Rule as the data show it: active = GI50 up to about 1.1 µM and inactive = higher.
# Key:
# Assay in all cases: inhibition of tumour cell growth, NCI panel, 48 h
# PC-3 = tested on: PC-3
# UACC-62 = tested on: UACC-62
# A549 = tested on: A549
# MDA-N = tested on: MDA-N
# SF-268 = tested on: SF-268
# SK-MEL-2 = tested on: SK-MEL-2
# UACC-257 = tested on: UACC-257
# RXF 393 = tested on: RXF 393
# OVCAR-5 = tested on: OVCAR-5
# BT-549 = tested on: BT-549
# KM12 = tested on: KM12
# M14 = tested on: M14
# HT-29 = tested on: HT-29
# T47D = tested on: T47D
# LOX IMVI = tested on: LOX IMVI
# SK-MEL-28 = tested on: SK-MEL-28
# MOLT-4 = tested on: MOLT-4
# EKVX = tested on: EKVX
# SNB-75 = tested on: SNB-75
# RPMI-8226 = tested on: RPMI-8226
Structure (SMILES),GI50 (PC-3),GI50 (UACC-62),GI50 (A549),GI50 (MDA-N),GI50 (SF-268),GI50 (SK-MEL-2),GI50 (UACC-257),GI50 (RXF 393),GI50 (OVCAR-5),GI50 (BT-549),GI50 (KM12),GI50 (M14),GI50 (HT-29),GI50 (T47D),GI50 (LOX IMVI),GI50 (SK-MEL-28),GI50 (MOLT-4),GI50 (EKVX),GI50 (SNB-75),GI50 (RPMI-8226)
COC(=O)c1cc(C)ccc1/C=C1\Cc2c(C)cc(C)cc2C1=O,> 39.8 µM (inactive),6.59 µM (inactive),99.3 µM (inactive),25.5 µM (inactive),15.3 µM (inactive),22.8 µM (inactive),> 18.3 µM (inactive),16.1 µM (inactive),> 43.9 µM (inactive),36.5 µM (inactive),> 44 µM (inactive),17.3 µM (inactive),10.8 µM (inactive),> 97.3 µM (inactive),> 30.7 µM (inactive),99.1 µM (inactive),> 100 µM (inactive),41.5 µM (inactive),16.2 µM (inactive),10.3 µM (inactive)
Brc1ccc2c(-c3nc(-c4c[nH]c5ccccc45)cs3)c[nH]c2c1,30.8 µM (inactive),27.5 µM (inactive),9.59 µM (inactive),41.9 µM (inactive),> 56.8 µM (inactive),> 61.2 µM (inactive),69.2 µM (inactive),17.6 µM (inactive),31.9 µM (inactive),34.8 µM (inactive),10 µM (inactive),51.6 µM (inactive),38.6 µM (inactive),30.9 µM (inactive),10.4 µM (inactive),> 27.8 µM (inactive),26.7 µM (inactive),12.7 µM (inactive),37.4 µM (inactive),12.1 µM (inactive)
CCOC(=O)CSc1nnc2cc(CN3CCCC3)c(-c3ccc(Cl)cc3)nn12,> 100 µM (inactive),> 100 µM (inactive),> 100 µM (inactive),85.9 µM (inactive),> 100 µM (inactive),> 100 µM (inactive),91.4 µM (inactive),86.5 µM (inactive),> 100 µM (inactive),> 100 µM (inactive),> 100 µM (inactive),> 100 µM (inactive),74.5 µM (inactive),57.5 µM (inactive),> 100 µM (inactive),> 100 µM (inactive),38.5 µM (inactive),> 100 µM (inactive),85.5 µM (inactive),63.2 µM (inactive)
Cc1ccc([N+](=O)[O-])c2c(NCCNC(=O)c3cc(C(=O)NCCNc4ccnc5c(C)ccc([N+](=O)[O-])c45)n(C)n3)ccnc12,> 100 µM (inactive),> 47.4 µM (inactive),> 57.1 µM (inactive),> 43.7 µM (inactive),> 100 µM (inactive),> 100 µM (inactive),> 81.1 µM (inactive),> 100 µM (inactive),> 84.9 µM (inactive),> 100 µM (inactive),> 100 µM (inactive),> 72.4 µM (inactive),> 77.8 µM (inactive),> 77.8 µM (inactive),> 44.7 µM (inactive),> 60.5 µM (inactive),31.7 µM (inactive),> 100 µM (inactive),45.2 µM (inactive),41.2 µM (inactive)
C=CCn1c2c(c3ccccc3c1=O)C(=O)c1ccccc1-2,> 100 µM (inactive),> 78 µM (inactive),> 100 µM (inactive),> 100 µM (inactive),> 68.1 µM (inactive),> 100 µM (inactive),> 100 µM (inactive),15.9 µM (inactive),> 100 µM (inactive),> 100 µM (inactive),> 72.9 µM (inactive),> 100 µM (inactive),> 100 µM (inactive),> 100 µM (inactive),> 100 µM (inactive),> 100 µM (inactive),3.4 µM (inactive),> 100 µM (inactive),> 81.5 µM (inactive),> 25.6 µM (inactive)
CC(=O)NS(=O)(=O)c1ccc(NCc2cccc3c(=O)c4ccc(Cl)cc4oc23)cc1,38.5 µM (inactive),48 µM (inactive),> 80.9 µM (inactive),42.6 µM (inactive),30.8 µM (inactive),46 µM (inactive),> 56.6 µM (inactive),20.4 µM (inactive),> 100 µM (inactive),> 54.2 µM (inactive),20.5 µM (inactive),41.1 µM (inactive),31.8 µM (inactive),> 92.3 µM (inactive),> 33.2 µM (inactive),73.8 µM (inactive),11.5 µM (inactive),38.3 µM (inactive),64 µM (inactive),11.2 µM (inactive)
c1cnc2c(c1)ccc1cccnc12,> 27.1 µM (inactive),3.81 µM (inactive),5.07 µM (inactive),4.97 µM (inactive),4.07 µM (inactive),> 28.4 µM (inactive),3.78 µM (inactive),4.48 µM (inactive),5.31 µM (inactive),9.79 µM (inactive),4.93 µM (inactive),4.02 µM (inactive),4.55 µM (inactive),4.92 µM (inactive),3.61 µM (inactive),4.95 µM (inactive),2.86 µM (inactive),3.91 µM (inactive),13.6 µM (inactive),2.67 µM (inactive)
COc1ccc(N2C(=O)[C@H]3CC(C)c4c([nH]c5ccccc45)[C@H]3C2=O)cc1 (some centres undefined),1.66 µM (inactive),1.31 µM (inactive),5.85 µM (inactive),0.681 µM (active),10.3 µM (inactive),2.24 µM (inactive),4.6 µM (inactive),1.53 µM (inactive),33.7 µM (inactive),8.83 µM (inactive),2.77 µM (inactive),2.48 µM (inactive),2.92 µM (inactive),4.26 µM (inactive),4.6 µM (inactive),4.82 µM (inactive),3.78 µM (inactive),24 µM (inactive),2.03 µM (inactive),3.48 µM (inactive)
Cc1nnc(Sc2nc(C#N)c(C#N)nc2Sc2nnc(C)s2)s1,14.8 µM (inactive),17.2 µM (inactive),22.1 µM (inactive),12.2 µM (inactive),23.6 µM (inactive),18.4 µM (inactive),10.4 µM (inactive),1.92 µM (inactive),17.2 µM (inactive),5.61 µM (inactive),23.8 µM (inactive),8.2 µM (inactive),4.18 µM (inactive),2.54 µM (inactive),2.72 µM (inactive),10.5 µM (inactive),2.25 µM (inactive),19.3 µM (inactive),28.6 µM (inactive),2.5 µM (inactive)
O=C(NN=C1NCCN1)c1ccco1,> 100 µM (inactive),> 100 µM (inactive),> 100 µM (inactive),> 100 µM (inactive),> 100 µM (inactive),> 100 µM (inactive),> 100 µM (inactive),> 100 µM (inactive),> 100 µM (inactive),> 100 µM (inactive),> 100 µM (inactive),> 100 µM (inactive),> 100 µM (inactive),> 100 µM (inactive),> 100 µM (inactive),> 100 µM (inactive),> 100 µM (inactive),> 100 µM (inactive),> 100 µM (inactive),> 100 µM (inactive)
N#CC(C#N)=C1CCCS(=O)(=O)c2ccccc21,> 100 µM (inactive),> 100 µM (inactive),> 100 µM (inactive),> 100 µM (inactive),> 100 µM (inactive),> 100 µM (inactive),> 100 µM (inactive),> 100 µM (inactive),> 100 µM (inactive),> 100 µM (inactive),> 100 µM (inactive),> 100 µM (inactive),> 100 µM (inactive),> 100 µM (inactive),> 100 µM (inactive),> 100 µM (inactive),> 100 µM (inactive),> 100 µM (inactive),> 100 µM (inactive),> 100 µM (inactive)
Cc1ccc(C)c(NC(=O)NCc2ccc(Cl)cc2)c1,> 100 µM (inactive),> 100 µM (inactive),> 100 µM (inactive),> 100 µM (inactive),38.9 µM (inactive),> 63 µM (inactive),39.7 µM (inactive),8.89 µM (inactive),56.1 µM (inactive),> 100 µM (inactive),87.3 µM (inactive),52.5 µM (inactive),> 100 µM (inactive),43.7 µM (inactive),> 100 µM (inactive),97.5 µM (inactive),,97.9 µM (inactive),2.24 µM (inactive),37.2 µM (inactive)
COC(=O)c1ccccc1/C=C1\Cc2ccc(C)c(C)c2C1=O,> 100 µM (inactive),> 100 µM (inactive),> 100 µM (inactive),> 100 µM (inactive),54.5 µM (inactive),> 100 µM (inactive),> 100 µM (inactive),> 100 µM (inactive),> 100 µM (inactive),> 100 µM (inactive),> 100 µM (inactive),> 100 µM (inactive),> 100 µM (inactive),> 100 µM (inactive),> 100 µM (inactive),> 100 µM (inactive),> 100 µM (inactive),> 100 µM (inactive),35.4 µM (inactive),> 100 µM (inactive)
NCCCC(N)C(=O)O (centres undefined),> 100 µM (inactive),> 100 µM (inactive),> 100 µM (inactive),> 100 µM (inactive),> 100 µM (inactive),> 100 µM (inactive),> 100 µM (inactive),> 100 µM (inactive),> 100 µM (inactive),> 100 µM (inactive),> 100 µM (inactive),> 100 µM (inactive),> 100 µM (inactive),> 100 µM (inactive),> 100 µM (inactive),> 100 µM (inactive),> 100 µM (inactive),> 100 µM (inactive),> 100 µM (inactive),> 100 µM (inactive)
